Bridge positions count the residues as written; N and C are the ends. Primed or numbered codes have the meaning given here. Ends that are not written are not given here. I, II: the chains in the order shown. * marks the point of attachment. Biotin = O=C1N[C@H]2[C@H](CS[C@H]2CCCCC(=O)*)N1; BMH′ = not defined here
How the values were obtained:
[1] = tested on: Human keratinocytes (NHEK cell), IL-8 secretion; test: IL-8 secretion by NHEK cells (ELISA); assay type: cell-based; conditions: for secretion amount of IL-8: FIG. 8, 50 μg/ml, deletion variants of b7; for secretion amount of IL-8 / IL-8 inducing activity: 16–20 hours; for IL-8 inducing activity: Table IV, 50 μg/ml, symbols not defined
Procedure: Human keratinocytes (NHEK cell, Clonetics, available from Sanko Jyun-yaku, Ltd.) were cultivated in a medium for proliferation (Clontics) comprising 30 μg/ml BPE, 0.1 ng/ml human EGF, 5 μg/ml insulin, 0.5 μg/ml hydrocortisone, 50 μg/ml gentamycin, and 50 ng/ml amphoterin. These cells were re-suspended at the concentration of 1×10^4 cells/ml in a medium wherein EGF, insulin, and hydrocortisone were removed from the above medium for proliferation, and then 100 μl of the suspension was placed on each well of a 96-well plate. At the same time of the plating of the cells, 5 μl of 1 mg/ml oligopeptide was added to the suspension so as to be final concentration of 50 μg/ml. After cultivation for 16–20 hours, the amount of IL-8 in the culture supernatants was measured by ELISA kit (ENDOGEN).

[2] = tested on: antigen of about 220 kDa present in new follicle (antigen of mAb27); test: Skin tissues of maxilla of ICR mice incubated with test oligopeptide, Western blot with mAb 27; assay type: cell-based; conditions: for hair growth promoting activity (mAb 27 band stronger than control): Example 10, FIG. 4 and 5, BMH-treated oligopeptides of Example 9, 20 μCM
Procedure: The skin tissues of maxilla of ICR mice (pregnancy 12 days) were collected by stereoscopic microscope, and left and right sides were respectively recovered from 5 mice. 5 pieces of each of the thus collected left (for control) and right (for test oligopeptides) skins from 5 mice were respectively placed on 1 nuclepore membrane (pore diameter 8 μm; diameter 13 mm), and were set in such a way that the outside upturns by observing the samples with stereoscopic microscope. 500 μl of Dulbecco's MEM/Ham F12 medium containing 1% BSA was added to 2 wells of 24 well dish. The test oligopeptide in a solvent (PBS) was added in a final concentration of 20 μCM to one well, and solvent (PBS) was added in the same amount to the other well as a control. The oligopeptides synthesized in Example 9 were used as the test oligopeptides.
(§1) Each membrane having skin tissues thereon was launched on the solution in the above wells, and was incubated at 37° C. for 6 days. 5 pieces of tissue were recovered from the membrane into 100 μl of SDS sample buffer (SDS 0.02 g/ml, glycerol 0.2 g/ml, pH6.8), and dissolved by ultrasonic treatment. The control membrane was also treated similarly. The solution obtained by such a treatment was subjected to electrophoresis (35 mA, 1.5 hour) in SDS-PAGE (acrylamide 4–20%), and transferred to PVDF membrane, and incubated in Tris buffer containing 5% skim milk (TBST) for 1 hour. The membrane was reacted with mAb 27 (10 μg/ml in TBST) obtained in Example 2 for 1 hour, and was washed well with TBS. Then, peroxidase labeled anti-rat IgG (Amersham) (1/1000 diluted in TBST) was reacted as the second antibody, and the membrane was washed well with TBS. The intensity of the reaction of mAb 27 was examined using ECL kit (Amersham).
The skin tissues of maxilla of ICR mice (pregnancy 12 days) were collected by stereoscopic microscope, and left and right sides were respectively recovered from 5 mice. 5 pieces of each of the thus collected left (for control) and right (for test oligopeptides) skins from 5 mice were respectively placed on 1 nuclepore membrane (pore diameter 8 μm; diameter 13 mm), and were set in such a way that the outside upturns by observing the samples with stereoscopic microscope. 500 μl of Dalbecco's MEM/Ham F12 medium containing 1% BSA was added to 2 wells of 24 well dish. The test oligopeptide in a solvent (PBS) was added in a final concentration of 20 μM to one well, and solvent (PBS) was added in the same amount to the other well as a control. The unmodified and modified oligopeptides synthesized in the above (1) were used as the test oligopeptides.
as §1, with “Example 6” for “Example 2”
The skin tissues of maxilla of ICR mice (pregnancy 12 days) were collected by stereoscopic microscope, and left and right sides were respectively recovered from 5 mice. […]

[3] = tested on: transition from telogen to anagen (hair cycle); test: Evaluation of hair growth promoting activity by in vivo method (shaved telogen mice, hair growth score); design: species or system C57BL/6 mice; conditions: for hair restoration compared with the control group (hair growth score): topical application until 38th day, FIGS. 6 and 7; for Hair growth Activity: Table IV, symbols not defined
Procedure: C3H and C57BL/6 mice are known to have sustained telogen for about 50 days from the 45th day after the birth to around the 95th day. Their hair cycle is easily judged based on the skin color changes, i.e., from pink in telogen to gray or black in anagen. A test for evaluating whether or not the administration the oligopeptides of the present invention promotes the transition from telogen to anagen was carried out using the mice. Seven weeks old (48 to 50-day old, female) C57BL/6 mice were purchased and hair of the back (about 3×2.5 cm^2) was carefully shaved with electric clippers for animals so as not to injure the skin, and the hair cycle was confirmed to be in telogen from the skin color. The oligopeptide solution prepared above was applied to five mice in each group, once a day and 5 days in a week in the amount of 0.2 ml until 38th day from the start of the test. The application was carried out by using a syringe without needle. Dipeptide (Ile-Lys) and tripeptide (Glu-Ile-Lys) of which N-terminal is biotinylated were mixed, and then added with the cross-linking agent to prepare a control solution.
Plural persons (two persons) observed the mice twice a week by naked eye for evaluation, and gave a 6-graded score depending on a ratio of hair restoration area based on the hair shaved area. At the same time, photographs were taken. Hair growth scores were calculated as follows. At first, the following score was given depending on a ratio of areas where the skin color changes to gray or black in the hair shaved area; 0–20%: 1, 20–40%: 2, 40–60%: 3, 60–80%:4, 80–100%: 5. The sum of the above scores in each group was determined as the hair growth score. The maximum value of the hair growth score of each group was 50 for each of the persons for judgment, and the maximum value of hair growth score was 100 because the judgment was made by two persons.

[4] = cited from earlier work
[5] = Example 11, position of Cys altered, synthesized as in Example 9

Molecule: EQSCDQDE (Biotin-EQSCDQDE) [b7ΔN2]
- secretion amount of IL-8 [1]: slightly decreased

Molecule: IEQSCDQDE (Biotin-IEQSCDQDE) [b7ΔN1]
- secretion amount of IL-8 [1]: slightly decreased

Molecule: Lys-Ser-Ile-Glu-Gln-Ser-Cys-Asp-Gln-Asp-Glu (Biotin-KSIEQSCDQDE) [bk7]
- IL-8 inducing activity compared with oligopeptide b7 ([1]; FIG. 9, Examples 17 and 18): almost the same IL-8 inducing activity as that of oligopeptide b7

Molecule: QSCDQDE (Biotin-QSCDQDE) [b7ΔN3]
- secretion amount of IL-8 [1]: slightly decreased

Molecule: SICEQSD [SEQ ID NO:6]
- hair growth promoting activity [2, 5]: showed a hair growth promoting activity

Molecule: SICEQSDQDE [oligopeptide (C)]
- hair growth promoting activity (mAb 27 band stronger than control) ([2]; 6 days): have a hair growth promoting activity

Molecule: SIECQSD [SEQ ID NO:5]
- hair growth promoting activity [2, 5]: showed a hair growth promoting activity

Molecule: SIECQSDQ [oligopeptide (D)]
- hair growth promoting activity (mAb 27 band stronger than control) ([2]; 6 days): had a hair growth promoting activity

Molecule: SIECQSDQDE [oligopeptide (B)]
- hair growth promoting activity (mAb 27 band stronger than control) ([2]; 6 days): have a hair growth promoting activity

Molecule: SIEQCSD [SEQ ID NO:4]
- hair growth promoting activity [2, 5]: showed a hair growth promoting activity

Molecule: SIEQCSDQDE [oligopeptide (A)]
- hair growth promoting activity (mAb 27 band stronger than control) ([2]; 6 days): have a hair growth promoting activity

Molecule: SIEQS (Biotin-SIEQS) [b7ΔC5]
- secretion amount of IL-8 [1]: significantly decreased

Molecule: SIEQSC (Biotin-SIEQSC; also: Cys sulfhydryl blocked (group not given here)) [b7ΔC4]
- secretion amount of IL-8 [1]: maintained

Molecule: SIEQSCD (Biotin-SIEQSCD; also: Cys sulfhydryl blocked (group not given here)) [b7ΔC3]
- secretion amount of IL-8 [1]: maintained

Molecule: SIEQSCDQ (Biotin-SIEQSCDQ; also: Cys sulfhydryl blocked (group not given here)) [b7ΔC2]
- secretion amount of IL-8 [1]: maintained

Molecule: SIEQSCDQD (Biotin-SIEQSCDQD; also: sulfhydryl blocked) [b7ΔC1]
- secretion amount of IL-8 [1]: maintained

Molecule: SIEQSCDQDE [SEQ ID NO:84]
- hair growth promoting activity ([3]; conclusion of Example 15): has hair growth promoting activity

Molecule: b7: modified oligopeptide having biotin at the N-terminus of Ser-Ile-Glu-Gln-Ser-Cys-Asp-Gln-Asp-Glu (SEQ ID NO:84) (Biotin-SIEQSCDQDE)
- hair restoration compared with the control group (hair growth score) ([3]; C57BL/6 mice): hair restoration was promoted until about 30 days from the start of the test
- Hair growth Activity [3]: ◯
- IL-8 inducing activity [1]: ⊚

Molecule: heterodimer oligopeptide: heterodimer made with BMH from two different oligopeptides; b464 names SEQ ID NO:87 and SEQ ID NO:4, b490 oligopeptides (A) and (B) (chain 1 SIEQSCD; chain 2 SIEQCSD; linker I:6-II:5 via BMH′ (inferred))
- hair growth promoting activity (mAb 27 band stronger than control) ([2]; 6 days): had also a hair growth promoting activity

Molecule: ss7: S-S bridged oligopeptide prepared by reacting the oligopeptide (SEQ ID NO:84 series) with BMH; elsewhere called S-S bridged and biotinylated (SIEQSCDQDE; also: BMH cross-linked dimer, Cys attachment not placed, biotinylated, site not given here)
- hair growth promoting activity ([2]; Example 16): has hair growth promoting activity
- band of mAb27 antigen versus control ([2]; Example 16, FIG. 13, 20 μM, 6 days): a stronger band was detected
- transition to anagen earlier than the control group ([3]; C57BL/6 mice, 0.2 ml of oligopeptide solution (0.15 mg/ml, 50% ethanol/PBS) once a day, 5 days in a week): ≥ 7 days
- hair restoration compared with the control group (hair growth score) ([3]; C57BL/6 mice): hair restoration was promoted at any time until the hair grew and restored almost completely
- Hair growth Activity [3]: ⊚
- IL-8 inducing activity [1]: ⊚

B1: Native mammalian epimorphin: protein of 277 to 289 amino acids promoting the morphogenesis of epithelial tissue (protein, UniProt P32856 1-288, looked up)
Syntaxin-2: MRDRLPDLTACRKNDDGDTVVVVEKDHFMDDFFHQVEEIRNSIDKITQYVEEVKKNHSIILSAPNPEGKIKEELEDLNKEIKKTANKIRAKLKAIEQSFDQDESGNRTSVDLRIRRTQHSVLSRKFVEAMAEYNEAQTLFRERSKGRIQRQLEITGRTTTDDELEEMLESGKPSIFTSDIISDSQITRQALNEIESRHKDIMKLETSIRELHEMFMDMAMFVETQGEMINNIERNVMNATDYVEHAKEETKKAIKYQSKARRKKWIIIAVSVVLVAIIALIIGLSVGK
- solubility in aqueous media such as saline [4]: almost insoluble
